Several values for one entry are separate records, joined by “and”; a condition that tells them apart may be missing. Equal values may be shown once. Where a name gives a salt, the structure may show the parent alone. Read-outs that look alike come from different tables or passages of the source. One block for each compound: values may come before it.
Target: hTRPV3 (Homo sapiens (Human), UniProt Q8NET8)
Experiment: Whole-cell patch clamp, hTRPV3 Phase 1 / Phase 2 currents
Format: cell-based
Source text: Whole-cell patch clamp experiments permit the detection of currents through the TRPV3 channel in the cell line described above. A glass electrode is brought into contact with a single cell and the membrane is then ruptured, permitting control of the voltage of the cell membrane and measurement of currents flowing across the membrane using the amplifier attached to the electrode. A perfusion system permits control of the extracellular solution, including the addition of blockers and activators of the current. The current can be activated by heating this solution to 28° C. or warmer or by addition of 20 μM 2-APB to the solution.
TRPV3 cells were induced 20-48 hours, removed from growth plates, and replated at low density (to attain good single-cell physical separation) on glass coverslips for measurement. In some cases, cells were grown in low density overnight on glass coverslips. Patch clamp recordings were made in the whole-cell mode with a holding potential of −40 mV. Every 5 seconds, a voltage ramp was applied from −120 to +100 mV, 400 ms in duration. Currents elicited were quantified at −80 mV and +80 mV. […] External solution was Ringer's solution described above.
P1 refers to the Phase 1 current for human (h) TRPV3, and P2 refers to the Phase 2 current for human (h) TRPV3.
In Tables 3 and 4, Phase 1 refers to Phase 1 current for human (h) TRPV3 or rat (r) TRPV3, and Phase 2 refers to Phase 2 current for human (h) TRPV3 or rat (r) TRPV3. The hTRPV3 and rTRPV3 assays were performed as described herein. hERG refers to the inhibition the human ERG (hERG) channel. NaV1.5, refers to the pore forming aL-subunit of the voltage-dependent cardiac Na(+) channel and is an integral membrane protein involved in the initiation and conduction of action potentials. hTRPV3 HAMA IC50 refers to the IC50 of TRPV3 cells stably expressed in TRex-293 cells. Solubility Ringer refers to the compounds' solubility in Ringer's solution. LM T1/2 refers to liver microsome half-lives in either rat or human liver microsomes. FLIPR IC50 refers to the IC50 of the test compounds against recombinant hTRPV3 cells.

[1] = Phase 1 current, inward, whole-cell patch clamp, read-out: hTRPV3 Patch P1 Inwd
[2] = Phase 2 current, inward, whole-cell patch clamp, read-out: hTRPV3 Patch P2 Inwd
[3] = Phase 1 current, read-out: hTRPV3 (nM) (Phase 1)
[4] = Phase 2 current, read-out: hTRPV3 (nM) (Phase 2)

Sequence of hTRPV3 (Q8NET8 whole entry): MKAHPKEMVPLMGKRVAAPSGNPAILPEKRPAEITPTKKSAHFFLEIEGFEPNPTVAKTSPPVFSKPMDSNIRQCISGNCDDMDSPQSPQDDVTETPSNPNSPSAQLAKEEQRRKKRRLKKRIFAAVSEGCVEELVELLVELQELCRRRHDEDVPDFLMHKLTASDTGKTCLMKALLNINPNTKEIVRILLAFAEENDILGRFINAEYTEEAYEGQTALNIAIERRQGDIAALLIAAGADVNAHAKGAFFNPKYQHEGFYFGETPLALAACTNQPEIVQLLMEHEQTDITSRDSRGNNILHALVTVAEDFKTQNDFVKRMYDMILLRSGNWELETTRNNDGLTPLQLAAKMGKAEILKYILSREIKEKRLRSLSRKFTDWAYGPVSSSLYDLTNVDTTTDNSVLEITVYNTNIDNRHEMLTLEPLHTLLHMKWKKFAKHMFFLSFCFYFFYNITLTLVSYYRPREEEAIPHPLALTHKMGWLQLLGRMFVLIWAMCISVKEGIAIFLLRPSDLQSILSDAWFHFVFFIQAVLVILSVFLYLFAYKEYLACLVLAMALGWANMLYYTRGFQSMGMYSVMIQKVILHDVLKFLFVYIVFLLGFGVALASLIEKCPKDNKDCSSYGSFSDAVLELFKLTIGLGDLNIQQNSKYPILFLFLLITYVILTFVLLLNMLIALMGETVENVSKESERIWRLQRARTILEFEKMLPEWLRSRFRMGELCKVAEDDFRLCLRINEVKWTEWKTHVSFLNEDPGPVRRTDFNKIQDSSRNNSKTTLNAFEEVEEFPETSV

SMILES: NC(=O)c1ccc(-c2ccccc2)cc1N1CC[C@H](Oc2ccc(C(F)(F)F)cn2)C1 [Compound 1-63, (S)-3-(3-(5-(trifluoromethyl)pyridin-2-yloxy)pyrrolidin-1-yl)biphenyl-4-carboxamide]
IC50 [1]: > 1000 nM | IC50 [2]: > 1000 nM

SMILES: CC(C)Oc1cc(-c2ccccc2)ccc1N1CC[C@H](Oc2ccc(C(F)(F)F)cn2)C1 [Compound 1-77, (S)-2-(1-(3-isopropoxybiphenyl-4-yl)pyrrolidin-3-yloxy)-5-(trifluoromethyl)pyridine]
IC50 [1]: > 1000 nM | IC50 [3]: > 3200 nM | IC50 [2]: > 1000 nM | IC50 [4]: 1470 nM

SMILES: NC(=O)c1cc(-c2ccccc2)ccc1N1CC[C@@H](Oc2ccccn2)C1 [Compound 1-78, (R)-4-(3-(pyridin-2-yloxy)pyrrolidin-1-yl)biphenyl-3-carboxamide]
IC50 [1]: 100 to 1000 nM | IC50 [3]: ~835 nM | IC50 [2]: 100 to 1000 nM | IC50 [4]: 402 nM

SMILES: NC(=O)c1cc(-c2ccncc2)ccc1N1CC[C@@H](Oc2ccccn2)C1 [Compound 1-79, (R)-2-(3-(pyridin-2-yloxy)pyrrolidin-1-yl)-5-(pyridin-4-yl)benzamide]
IC50 [1]: > 1000 nM | IC50 [3]: > 3200 nM | IC50 [2]: > 1000 nM | IC50 [4]: > 3200 nM

SMILES: NC(=O)c1cc(-c2ccncc2)ccc1N1CC[C@@H](Oc2ncccc2Cl)C1 [Compound 1-82, (R)-2-(3-(3-chloropyridin-2-yloxy)pyrrolidin-1-yl)-5-(pyridin-4-yl)benzamide hydrochloride]
IC50 [1]: > 1000 nM | IC50 [3]: 3600 nM | IC50 [2]: > 1000 nM | IC50 [4]: 1930 nM

SMILES: NC(=O)c1cc(C(F)(F)F)ccc1N1CC[C@@H](Oc2ccc(C(F)(F)F)cn2)C1 [Compound 1-84, (R)-5-(trifluoromethyl)-2-(3-(5-(trifluoromethyl)pyridin-2-yloxy)pyrrolidin-1-yl)benzamide]
IC50 [1]: 100 to 1000 nM | IC50 [3]: 631 nM

SMILES: NC(=O)c1cc(-c2ccccn2)ccc1N1CC[C@@H](Oc2ncccc2Cl)C1 [Compound 1-85, (R)-2-(3-(3-chloropyridin-2-yloxy)pyrrolidin-1-yl)-5-(pyridin-2-yl)benzamide]
IC50 [1]: > 1000 nM | IC50 [3]: 3480 nM

SMILES: NC(=O)c1cc(-c2ccccc2)ccc1N1CC[C@@H](Oc2ccc3cc(Cl)ccc3n2)C1 [Compound 1-86, (R)-4-(3-(6-chloroquinolin-2-yloxy)pyrrolidin-1-yl)biphenyl-3-carboxamide]
IC50 [2]: > 1000 nM | IC50 [4]: > 3200 nM

SMILES: NC(=O)c1cc(-c2cccnc2)ccc1N1CC[C@@H](Oc2ccccn2)C1 [Compound 1-87, hydrochloride]
IC50 [1]: > 1000 nM

SMILES: NC(=O)c1cc(-c2ccccn2)ccc1N1CC[C@@H](Oc2ccccn2)C1 [Compound 1-88, (R)-5-(pyridin-2-yl)-2-(3-(pyridin-2-yloxy)pyrrolidin-1-yl)benzamide]
IC50 [1]: > 1000 nM | IC50 [3]: > 3200 nM | IC50 [2]: > 1000 nM | IC50 [4]: > 3200 nM

SMILES: Oc1cc(-c2ccccc2)ccc1N1CC[C@@H](Oc2ccc(C(F)(F)F)cn2)C1 [Compound 1-89, (R)-4-(3-(5-(trifluoromethyl)pyridin-2-yloxy)pyrrolidin-1-yl)biphenyl-3-ol]
IC50 [1]: > 1000 nM | IC50 [3]: > 3200 nM | IC50 [2]: > 1000 nM | IC50 [4]: > 3200 nM

SMILES: NC(=O)c1cc(-c2ccccc2)cnc1N1CC[C@@H](Oc2ncccc2Cl)C1 [Compound 1-90, (R)-2-(3-(3-chloropyridin-2-yloxy)pyrrolidin-1-yl)-5-phenylnicotinamide]
IC50 [1]: > 1000 nM | IC50 [3]: ~3000 nM | IC50 [2]: > 1000 nM | IC50 [4]: 1600 nM

SMILES: O=C(O)c1cc(-c2ccccc2)cnc1N1CC[C@@H](Oc2ccc(C(F)(F)F)cn2)C1 [Compound 1-91]
hTRPV3 (nM) (Phase 1) (Phase 1 current): Agonist (Phase 1)

SMILES: NC(=O)c1cc(-c2ccccc2)cnc1N1CC[C@@H](Oc2ccc(C(F)(F)F)cn2)C1 [Compound 1-92, (R)-5-phenyl-2-(3-(5-(trifluoromethyl)pyridin-2-yloxy)pyrrolidin-1-yl)nicotinamide]
hTRPV3 (nM) (Phase 1) (Phase 1 current): Incomplete Block (Phase 1) Incomplete Block (Phase 2) | hTRPV3 (nM) (Phase 2) (Phase 2 current): Incomplete Block (Phase 1) Incomplete Block (Phase 2)

SMILES: Nc1cc(-c2ccccc2)ccc1N1CC[C@@H](Oc2ccc(C(F)(F)F)cn2)C1 [Compound 1-93, (R)-4-(3-(5-(trifluoromethyl)pyridin-2-yloxy)pyrrolidin-1-yl)biphenyl-3-amine]
hTRPV3 (nM) (Phase 2) (Phase 2 current): Incomplete Block | IC50 (hTRPV3 (nM) (Phase 2), Phase 2 current): 494 nM and < 320 nM

SMILES: O=C1C(Oc2ccc3ccccc3n2)CCN1c1ccc(-c2ccccc2)cc1 (stereo not shown) [Compound 1-95, 1-(biphenyl-4-yl)-3-(quinolin-2-yloxy)pyrrolidin-2-one]
IC50 [1]: > 1000 nM | IC50 [3]: > 3200 nM

SMILES: N#Cc1nc(-c2ccccc2)ccc1N1CC[C@@H](Oc2ccc(C(F)(F)F)cn2)C1 [Compound 1-97]
IC50 [2]: > 1000 nM | IC50 [4]: 2930 nM

SMILES: NC(=O)c1nc(-c2ccccc2)ccc1N1CC[C@@H](Oc2ccc(C(F)(F)F)cn2)C1 [Compound 1-98, (R)-6-phenyl-3-(3-(5-(trifluoromethyl)pyridin-2-yloxy)pyrrolidin-1-yl)picolinamide]
IC50 [1]: 100 to 1000 nM | IC50 [3]: 479 nM

SMILES: NC(=O)c1cc(-c2ccccc2)ncc1N1CC[C@@H](Oc2ccc(C(F)(F)F)cn2)C1 [Compound 1-99, (R)-2-phenyl-5-(3-(5-(trifluoromethyl)pyridin-2-yloxy)pyrrolidin-1-yl)isonicotinamide]
IC50 [1]: 100 to 1000 nM | IC50 [3]: ~787 nM | IC50 [2]: 100 to 1000 nM | IC50 [4]: 349 nM

SMILES: NC(=O)c1cc(C2=NCCN2)ccc1N1CC[C@@H](Oc2ccc(C(F)(F)F)cn2)C1 [Compound 1-100, (R)-5-(4,5-dihydro-1H-imidazol-2-yl)-2-(3-(5-(trifluoromethyl)pyridin-2-yloxy)pyrrolidin-1-yl)benzamide]
IC50 (hTRPV3 Patch P1 Inwd (nM)): > 1000 nM | IC50 (hTRPV3 Patch P2 Inwd (nM)): > 1000 nM | IC50 (read-out: hTRPV3 (nM) (Phase 1)): > 3200 nM | IC50 (read-out: hTRPV3 (nM) (Phase 2)): > 3200 nM

IC50 [1]: > 1000 nM | IC50 [3]: > 1000 nM | IC50 [2]: > 1000 nM | IC50 [4]: > 1000 nM
SMILES: O=C1C(Oc2ccc3ccccc3n2)CCN1c1cccc2ccccc12 (stereo not shown) [Compound 1-101]

SMILES: N#Cc1ccccc1N1CCC(Oc2ccc3ccccc3n2)C1=O (stereo not shown) [Compound 1-103, 2-(2-oxo-3-(quinolin-2-yloxy)pyrrolidin-1-yl)benzonitrile]
IC50 [1]: > 1000 nM | IC50 [3]: > 3200 nM

SMILES: O=C1C(Oc2ccc3ccccc3n2)CCN1c1ccccc1 (stereo not shown) [Compound 1-104, 1-phenyl-3-(quinolin-2-yloxy)pyrrolidin-2-one]
IC50 [1]: > 1000 nM | IC50 [3]: > 3200 nM

SMILES: NC(=O)c1ccccc1N1CCC(Oc2ccc3ccccc3n2)C1=O (stereo not shown) [Compound 1-105, 2-(2-oxo-3-(quinolin-2-yloxy)pyrrolidin-1-yl)benzamide]
IC50 [1]: > 1000 nM | IC50 [3]: > 3200 nM

SMILES: O=C1C(Oc2ccc3ccccc3n2)CCN1c1ccccc1Cl (stereo not shown) [Compound 1-106, 1-(2-chlorophenyl)-3-(quinolin-2-yloxy)pyrrolidin-2-one]
IC50 [1]: > 1000 nM | IC50 [3]: > 3200 nM | IC50 [2]: > 1000 nM | IC50 [4]: > 3200 nM

SMILES: NC(=O)c1cc(-c2ncc[nH]2)ccc1N1CC[C@@H](Oc2ccc(C(F)(F)F)cn2)C1 [Compound 1-107, (R)-5-(1H-imidazol-2-yl)-2-(3-(5-(trifluoromethyl)pyridin-2-yloxy)pyrrolidin-1-yl)benzamide]
IC50 [1]: > 1000 nM | IC50 [3]: > 1000 nM | IC50 [2]: > 1000 nM | IC50 [4]: > 1000 nM

SMILES: N#Cc1cc(-c2ccccc2)ccc1N1CCC(Oc2ccc3ccccc3n2)C1=O (stereo not shown) [Compound 1-108, 4-(2-oxo-3-(quinolin-2-yloxy)pyrrolidin-1-yl)biphenyl-3-carbonitrile]
IC50 [2]: > 1000 nM | IC50 [4]: > 3200 nM

Reference: patent US12435061B2 (priority 2020, dated 2025)
